Data reported in ChEMBL document CHEMBL3867477 (Bioorg Med Chem Lett, 2016).
Values after ≈ are worked out from the molar mass of the structure shown.

Key:
[1] = tested on: CHO; test: Selectivity index, ratio of Ki for human OX2 receptor expressed on CHO cell membrane to Ki for Ile408-Val variant human OX1 receptor expressed on CHO cell membrane; format: cell-based
[2] = target: Cytochrome P450 3A4 (Homo sapiens, UniProt P08684); test: Inhibition of CYP3A4 (unknown origin); format: ADME
[3] = Displacement of (2S)-N-(2-phenylphenyl)-1-[2-[1-(tritritiomethyl)benzimidazol-2-yl]sulfanylacetyl]pyrrolidine-2-carboxamide from human OX1 receptor Ile408-Val mutant expressed on CHO cell membrane measured after 3 hrs by TopCount method; format: cell membranes
[4] = Solubility of the compound; format: physicochemical
[5] = target: T1, Orexin receptor type 2 (Homo sapiens, UniProt O43614); test: Displacement of (2S)-N-(2-pyrrol-1-ylphenyl)-1-[2-[1-(tritritiomethyl)benzimidazol-2-yl]sulfanylacetyl]pyrrolidine-2-carboxamide from human OX2 receptor expressed on CHO cell membrane measured after 3 hrs by TopCount method; format: cell membranes
T1 sequence (O43614 whole entry): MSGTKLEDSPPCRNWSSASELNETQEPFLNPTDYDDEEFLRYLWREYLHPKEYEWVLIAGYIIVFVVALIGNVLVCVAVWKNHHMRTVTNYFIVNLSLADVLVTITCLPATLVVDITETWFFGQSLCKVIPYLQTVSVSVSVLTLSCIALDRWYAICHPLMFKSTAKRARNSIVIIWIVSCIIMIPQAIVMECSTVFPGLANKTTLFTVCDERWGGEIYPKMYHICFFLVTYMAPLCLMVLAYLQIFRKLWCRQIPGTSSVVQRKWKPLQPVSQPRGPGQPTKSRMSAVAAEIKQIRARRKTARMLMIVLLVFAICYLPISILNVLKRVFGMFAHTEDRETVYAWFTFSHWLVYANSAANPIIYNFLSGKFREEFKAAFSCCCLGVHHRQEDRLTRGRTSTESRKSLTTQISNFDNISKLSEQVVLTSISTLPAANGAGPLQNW

[6] = target: Voltage-dependent L-type calcium channel subunit alpha-1C (Homo sapiens, UniProt Q13936); test: Inhibition of Cav1.2 (unknown origin)
[7] = target: Cytochrome P450 2C9 (Homo sapiens, UniProt P11712); test: Inhibition of CYP2C9 (unknown origin); format: ADME
[8] = Aqueous solubility of the compound at pH 7; format: physicochemical; settings: aqueous medium

Cytochrome P450 3A4, sequence (P08684 whole entry): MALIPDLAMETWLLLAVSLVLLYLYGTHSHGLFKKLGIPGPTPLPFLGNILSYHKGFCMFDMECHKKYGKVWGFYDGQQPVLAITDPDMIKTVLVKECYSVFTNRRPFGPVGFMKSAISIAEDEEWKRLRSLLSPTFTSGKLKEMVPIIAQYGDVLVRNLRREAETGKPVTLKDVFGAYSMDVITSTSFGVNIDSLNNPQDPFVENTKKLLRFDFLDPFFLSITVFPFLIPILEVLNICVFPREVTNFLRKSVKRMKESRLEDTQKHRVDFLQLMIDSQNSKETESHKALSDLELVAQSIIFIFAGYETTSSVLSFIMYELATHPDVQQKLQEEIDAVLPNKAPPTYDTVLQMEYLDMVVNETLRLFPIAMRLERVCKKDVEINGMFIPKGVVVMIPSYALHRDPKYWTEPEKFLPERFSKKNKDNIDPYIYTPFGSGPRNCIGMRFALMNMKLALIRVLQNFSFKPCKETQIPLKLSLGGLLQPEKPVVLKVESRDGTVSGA
Cytochrome P450 2C9, sequence (P11712 whole entry): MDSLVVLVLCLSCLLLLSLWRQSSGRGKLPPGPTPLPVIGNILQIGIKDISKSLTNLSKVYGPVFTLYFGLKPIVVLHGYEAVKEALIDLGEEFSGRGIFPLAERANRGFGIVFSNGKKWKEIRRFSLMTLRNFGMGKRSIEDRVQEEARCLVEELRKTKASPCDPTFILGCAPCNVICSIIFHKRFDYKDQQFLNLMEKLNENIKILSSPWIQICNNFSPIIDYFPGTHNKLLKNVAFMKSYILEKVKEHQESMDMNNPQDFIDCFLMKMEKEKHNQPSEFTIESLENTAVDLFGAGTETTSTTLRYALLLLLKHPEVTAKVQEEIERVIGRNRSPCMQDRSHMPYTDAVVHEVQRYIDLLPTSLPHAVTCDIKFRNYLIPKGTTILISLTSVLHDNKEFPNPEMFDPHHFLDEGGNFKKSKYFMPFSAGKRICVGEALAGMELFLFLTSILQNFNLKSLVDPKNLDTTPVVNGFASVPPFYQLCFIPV
Voltage-dependent L-type calcium channel subunit alpha-1C, sequence (Q13936 whole entry): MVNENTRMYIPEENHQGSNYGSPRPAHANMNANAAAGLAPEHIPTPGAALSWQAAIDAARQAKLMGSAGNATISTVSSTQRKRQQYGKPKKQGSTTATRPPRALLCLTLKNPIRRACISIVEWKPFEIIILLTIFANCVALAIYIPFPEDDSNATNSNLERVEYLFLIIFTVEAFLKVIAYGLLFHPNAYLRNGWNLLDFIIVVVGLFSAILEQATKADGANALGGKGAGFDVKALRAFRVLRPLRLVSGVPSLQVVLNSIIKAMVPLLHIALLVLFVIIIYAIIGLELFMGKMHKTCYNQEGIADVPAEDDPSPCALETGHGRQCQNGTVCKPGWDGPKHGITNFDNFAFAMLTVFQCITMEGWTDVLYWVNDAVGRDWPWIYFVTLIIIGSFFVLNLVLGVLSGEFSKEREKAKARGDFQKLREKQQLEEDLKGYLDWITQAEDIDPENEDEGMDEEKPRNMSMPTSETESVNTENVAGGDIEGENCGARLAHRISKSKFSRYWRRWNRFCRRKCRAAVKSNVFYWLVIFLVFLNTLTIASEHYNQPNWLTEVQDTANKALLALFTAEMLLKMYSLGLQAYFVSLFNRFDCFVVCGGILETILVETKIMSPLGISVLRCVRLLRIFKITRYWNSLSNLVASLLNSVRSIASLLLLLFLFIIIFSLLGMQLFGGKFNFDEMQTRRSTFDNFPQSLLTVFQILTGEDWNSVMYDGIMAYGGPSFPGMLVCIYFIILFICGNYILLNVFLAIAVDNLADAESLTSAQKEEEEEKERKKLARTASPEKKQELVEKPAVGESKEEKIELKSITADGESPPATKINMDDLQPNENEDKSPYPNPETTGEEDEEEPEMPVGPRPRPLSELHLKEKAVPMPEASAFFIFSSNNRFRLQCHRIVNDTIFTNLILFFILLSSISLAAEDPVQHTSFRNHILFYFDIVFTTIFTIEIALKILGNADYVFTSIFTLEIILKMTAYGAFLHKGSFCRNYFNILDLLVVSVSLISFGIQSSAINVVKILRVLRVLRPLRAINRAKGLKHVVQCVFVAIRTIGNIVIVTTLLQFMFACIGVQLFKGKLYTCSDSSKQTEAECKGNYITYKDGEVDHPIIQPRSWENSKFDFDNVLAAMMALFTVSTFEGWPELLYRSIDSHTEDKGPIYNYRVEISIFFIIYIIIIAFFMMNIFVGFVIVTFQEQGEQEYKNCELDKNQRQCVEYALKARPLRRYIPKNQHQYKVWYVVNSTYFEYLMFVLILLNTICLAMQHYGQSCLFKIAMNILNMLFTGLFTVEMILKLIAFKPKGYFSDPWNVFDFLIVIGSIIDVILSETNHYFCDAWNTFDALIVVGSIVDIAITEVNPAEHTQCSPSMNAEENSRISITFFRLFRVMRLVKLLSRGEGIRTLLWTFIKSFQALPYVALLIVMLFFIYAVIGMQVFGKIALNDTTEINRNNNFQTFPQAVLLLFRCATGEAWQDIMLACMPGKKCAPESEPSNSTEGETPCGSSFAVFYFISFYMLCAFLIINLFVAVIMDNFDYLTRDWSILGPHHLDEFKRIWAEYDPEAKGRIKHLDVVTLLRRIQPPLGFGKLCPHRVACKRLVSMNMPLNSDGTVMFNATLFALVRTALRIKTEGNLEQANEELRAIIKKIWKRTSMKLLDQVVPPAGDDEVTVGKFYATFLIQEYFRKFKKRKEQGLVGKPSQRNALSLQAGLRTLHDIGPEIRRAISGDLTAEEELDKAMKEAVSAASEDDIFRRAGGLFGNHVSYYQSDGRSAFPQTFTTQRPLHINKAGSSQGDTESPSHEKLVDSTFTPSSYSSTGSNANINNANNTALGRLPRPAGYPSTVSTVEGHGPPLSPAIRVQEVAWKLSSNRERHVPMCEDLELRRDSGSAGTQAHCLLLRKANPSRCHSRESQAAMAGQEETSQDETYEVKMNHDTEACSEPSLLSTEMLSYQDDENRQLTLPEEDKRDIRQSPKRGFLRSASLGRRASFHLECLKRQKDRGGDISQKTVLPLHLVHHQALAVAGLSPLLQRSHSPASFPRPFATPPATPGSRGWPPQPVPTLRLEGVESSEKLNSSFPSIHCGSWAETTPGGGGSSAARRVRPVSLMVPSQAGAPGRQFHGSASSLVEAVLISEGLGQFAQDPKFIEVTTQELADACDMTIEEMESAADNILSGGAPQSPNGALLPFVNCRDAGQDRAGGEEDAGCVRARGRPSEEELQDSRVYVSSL

inhibition (INH) [2]	solubility [4]	Ki [5] [nM]	inhibition (INH) [7]	INH [2] [µM]	INH [7] [µM]	solubility [8] [µM]	Compound	Ratio Ki [1]	Ki [3] [nM]	inhibition (INH) [6]
Active	Insoluble	> 4380	Active				O=C(c1cccc(F)c1)N1CCC(F)(F)C(Oc2ccc3ccccc3n2)C1 (racemic)	> 48	91	Active
Active	Insoluble	> 4380	Active				COc1cccc(C(=O)N2CCC(F)(F)C(Oc3ccc4ccccc4n3)C2)c1 (racemic)	> 481	9.1	Active
		11					Cc1ccc(-c2ncccn2)c(C(=O)N2CC(COc3ccc(F)cn3)CC[C@H]2C)c1 (stereo not given in full)	1.1	11	
Active	Insoluble	467	Active				O=C(c1ccccc1-n1nccn1)N1CCC(F)(F)C(Oc2ccc(C(F)(F)F)cn2)C1 (stereo not given)	33	14	Active
Active	Insoluble	> 1770	Active				O=C(c1ccccc1F)N1CCC(F)(F)C(Oc2ccc3ccccc3n2)C1 (racemic)	> 77	23	Active
		627					O=C(c1cccc(-n2cccn2)c1)N1CCC(F)(F)[C@@H](Oc2ccc3ccccc3n2)C1	570	1.1	
Active	Insoluble	2.8	Active				O=C(c1ccccc1-n1nccn1)N1CCC(F)(F)C(Oc2nccc3ccccc23)C1 (stereo not given)	0.43	6.5	Active
Active	Insoluble	907	Active				O=C(c1ccccc1-n1nccn1)N1CCC(F)(F)C(Oc2cccc(C(F)(F)F)n2)C1 (stereo not given)	3.8	240	Active
		281					O=C(c1ccccc1-c1ncccn1)N1CCC(F)(F)[C@@H](Oc2ccc3ccccc3n2)C1	156	1.8	
		27					O=C(c1ccccc1-n1nccn1)N1CCC[C@@H](Oc2ccc3ccccc3n2)C1	19	1.4	
		1140					O=C(c1ccccc1-n1nccn1)N1CCC(F)(F)C(Oc2ccc3ccccc3n2)C1 (racemic)	292	3.9	
Active	Insoluble	> 1410	Active				O=C(c1ccccc1-n1nccn1)N1CCC(F)(F)C(Oc2ccc3cccnc3n2)C1 (stereo not given)		1160	Active
		> 2100					O=C(c1cccc2cncn12)N1CCC(F)(F)C(Oc2ccc3ccccc3n2)C1 (racemic)	> 40	52	
							COc1ccc(C[C@H]2c3cc(OC)c(OC)cc3CCN2[C@@H](C(=O)NC(C)C)c2ccccc2)cc1OC		6	
		> 3330					O=C(c1cccc2nccn12)N1CCC(F)(F)C(Oc2ccc3ccccc3n2)C1 (racemic)	> 6	564	
	Insoluble	1620		6.7	10.8		COc1ccc(F)c(C(=O)N2CCC(F)(F)C(Oc3ccc4ccccc4n3)C2)c1 (racemic)	476	3.4	Active
	Insoluble	1230		6.7	10.8		COc1ccc(F)c(C(=O)N2CCC(F)(F)[C@@H](Oc3ccc4ccccc4n3)C2)c1F	1120	1.1	Active
		108					O=C(c1cncc2[nH]ccc12)N1CCC(F)(F)[C@@H](Oc2ccc3ccccc3n2)C1	386	0.28	
Active	Insoluble	220	Active				O=C(c1ccccc1-n1nccn1)N1CCC(F)(F)C(Oc2nc3ccccc3s2)C1 (stereo not given)	96	2.3	Active

inhibition (INH) [2]	solubility [4]	Ki [5] [nM]	inhibition (INH) [7]	INH [2] [µM]	INH [7] [µM]	solubility [8] [µM]	Compound	Ratio Ki [1]	Ki [3] [nM]	inhibition (INH) [6]
		861					O=C(c1cccc2ncccc12)N1CCC(F)(F)C(Oc2ccc3ccccc3n2)C1 (racemic)	6.2	140	
		120				13 (≈ 5.3 µg/mL)	O=C(c1cccc2[nH]ccc12)N1CCC(F)(F)[C@@H](Oc2ccc3ccccc3n2)C1	240	0.5	
		193					O=C(c1cccc(-c2ncc[nH]2)c1)N1CCC(F)(F)[C@@H](Oc2ccc3ccccc3n2)C1	1000 to 1380	0.14	
Active	Insoluble	1470	Active				O=C(c1ccccc1-n1nccn1)N1CCC(F)(F)C(Oc2ncc3ccccc3n2)C1 (stereo not given)	113	13	Active
		> 12700					O=C(c1cccn2cncc12)N1CCC(F)(F)C(Oc2ccc3ccccc3n2)C1 (racemic)	> 439	2.9	
		> 3370					O=C(c1ccccc1-n1nccn1)N1CCC(F)(F)C(O)C1 (stereo not given)		2240	
		871					O=C(c1cccc(-n2nccn2)c1)N1CCC(F)(F)[C@@H](Oc2ccc3ccccc3n2)C1	104	8.3	
Active	Insoluble	379	Active				O=C(c1ccccc1-n1nccn1)N1CCC(F)(F)C(Oc2cc3ccccc3cn2)C1 (stereo not given)	6.4	59	Active
		9					C[C@@H]1CC[C@@H](Oc2ccc3ccccc3n2)CN1C(=O)c1ccccc1-n1nccn1	2.3	3.9	
Active	Insoluble	467	Active				O=C(c1ccccc1-n1nccn1)N1CCC(F)(F)C(Oc2nc3ccccc3o2)C1 (stereo not given)	9.5	49	Active
Active	Insoluble	> 2630	Active				COc1ccccc1C(=O)N1CCC(F)(F)C(Oc2ccc3ccccc3n2)C1 (racemic)	> 110	24	Active
Active	Insoluble	14	Active				O=C(c1ccccc1-n1nccn1)N1CCC(F)(F)C(Oc2cc(C(F)(F)F)ccn2)C1 (stereo not given)	0.05	292	Active
Active	Insoluble	277	Active				O=C(c1ccccc1-n1nccn1)N1CCC(F)(F)C(Oc2ccnc3ccccc23)C1 (stereo not given)	0.035	7970	Active
Active	Insoluble	1040	Active				O=C(c1ccccc1-n1nccn1)N1CCC(F)(F)C(Oc2ccccn2)C1 (stereo not given)	0.26	4050	Active
Active	Insoluble	933	Active				O=C(c1ccccc1-n1nccn1)N1CCC(F)(F)C(Oc2cnc3ccccc3n2)C1 (stereo not given)	72	13	Active
Active	Insoluble	> 4380	Active				O=C(c1ccc(F)cc1)N1CCC(F)(F)C(Oc2ccc3ccccc3n2)C1 (racemic)	> 4	1080	Active
		> 5870					O=C(c1ccnc2[nH]cnc12)N1CCC(F)(F)C(Oc2ccc3ccccc3n2)C1 (racemic)	> 65	89	
Active	Insoluble	> 12700	Active				O=C(c1ccccc1)N1CCC(F)(F)C(Oc2ccc3ccccc3n2)C1 (racemic)	> 230	55	Active
Active	Insoluble	> 2630	Active				Cc1ccccc1C(=O)N1CCC(F)(F)C(Oc2ccc3ccccc3n2)C1 (racemic)	> 51	52	Active
